Measured values from PMC4907692, “Engineering vanilloid-sensitivity into the rat TRPV2 channel” (eLife, 2016).

What was measured:
[1] = target: T1, TRPV1 Y511A (dual GFP- and His-tagged) (Rattus norvegicus, UniProt O35433, Y511A); assay: 3H-RTx binding to intact S. cerevisiae cells expressing TRPV1 Y511A; details: 37°C, Figure 1F
T1 construct: expressed in transfected cells; host or cells: Saccharomyces cerevisiae (intact cells)
Procedure: To evaluate whether these constructs were competent to bind vanilloids, we initially measured the binding of [^3H]-RTx ([Szallasi and Blumberg, 1999]; [Szallasi et al., 1999]) to intact yeast cells expressing each of the constructs.
S. cerevisiae cells overexpressing TRPV1 constructs to be used in ligand binding assays on intact cells (Figure 1E,F) were grown as for small scale expression trials. 24 hr after protein induction cells were spun down at 4000g, the supernatant was removed and the pellet resuspended in 1x PBS, normalizing OD600 to 75 for each sample, and aliquoted for storage at -80°C. ^3H-RTx binding assays on cells were performed at 37°C as previously described ([Feng et al., 2015]), but where non-specific binding of RTx was measured using cells expressing GFP alone. The binding of RTx to TRPV1 and TRPV2 in membranes (e.g. Figure 2A,B and 5C) was performed at 37°C unless otherwise stated using membranes prepared from large scale protein preparations of S. cerevisiae containing rat TRPV1 and TRPV2 with a 1D4 tag expressed using a constitutive promoter as in [Moiseenkova-Bell et al., 2008]. Data for binding of RTx to membranes was corrected for non-specific binding, determined using either excess non-radioactive ligand or heat inactivation of the protein, as previously described ([Feng et al., 2015]). […]

[2] = target: T2, TRPV1 S512F/M547L (Rattus norvegicus, UniProt O35433, M547L/S512F); assay: Two-electrode voltage-clamp in Xenopus oocytes, TRPV1 S512F/M547L; type: cell-based; details: 100 nM RTx
T2 construct: expressed in transfected cells; host or cells: Xenopus oocytes (cRNA injection)
T2 sequence (O35433 whole entry S512F/M547L): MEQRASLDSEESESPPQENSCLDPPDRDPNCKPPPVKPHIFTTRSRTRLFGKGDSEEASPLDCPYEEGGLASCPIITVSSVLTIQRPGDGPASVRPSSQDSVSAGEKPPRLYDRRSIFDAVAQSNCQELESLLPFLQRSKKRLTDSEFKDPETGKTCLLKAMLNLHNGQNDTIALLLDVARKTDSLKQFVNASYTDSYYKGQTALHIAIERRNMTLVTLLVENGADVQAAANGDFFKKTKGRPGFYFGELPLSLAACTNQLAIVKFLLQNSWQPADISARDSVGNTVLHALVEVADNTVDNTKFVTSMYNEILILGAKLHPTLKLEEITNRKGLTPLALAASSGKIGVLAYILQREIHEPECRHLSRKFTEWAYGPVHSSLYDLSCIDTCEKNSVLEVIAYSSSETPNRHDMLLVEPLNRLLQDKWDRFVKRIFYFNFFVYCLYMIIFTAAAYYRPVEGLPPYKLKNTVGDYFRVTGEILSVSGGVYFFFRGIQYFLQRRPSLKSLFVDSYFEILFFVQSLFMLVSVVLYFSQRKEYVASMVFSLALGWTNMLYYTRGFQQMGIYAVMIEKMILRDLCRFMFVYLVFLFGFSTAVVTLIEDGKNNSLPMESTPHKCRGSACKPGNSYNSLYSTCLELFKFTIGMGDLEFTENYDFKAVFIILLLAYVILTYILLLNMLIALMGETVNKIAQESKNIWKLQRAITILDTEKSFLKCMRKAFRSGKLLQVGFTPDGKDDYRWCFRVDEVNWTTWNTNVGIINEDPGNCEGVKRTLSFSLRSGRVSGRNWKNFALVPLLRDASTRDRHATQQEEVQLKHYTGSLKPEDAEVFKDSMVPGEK
Source text: To further investigate the putative vanilloid binding pocket in TRPV1, we inspected the cryo-EM structure of TRPV1, looking for residues that are located nearby to the putative RTx density (Figure 1B; regions/residues highlighted in yellow) and that differ between TRPV1 and TRPV2 channels (Figure 3—figure supplement 1; regions highlighted in magenta). […] To quantify the contribution of each of these residues to TRPV1 channel activation by RTx under our experimental conditions, we mutated each to the corresponding residue in TRPV2. We then expressed each construct in oocytes and used the two electrode voltage-clamp technique to study activation by RTx and by the non-specific TRPV channel activator 2-APB. We recorded time courses for channel activation by each agonist while stepping the membrane potential from −60 to +60 mV every 3 s from a holding potential of 0 mV using an external recording solution containing 100 mM KCl (internal K^+ concentration in a healthy oocyte is 100 mM) (Figure 3A, left). We also recorded current-voltage (I-V) relations by stepping over a wider range of voltages in the absence and presence of activators, or in the presence of ruthenium red (RR), a non-specific inhibitor of TRP channels (Figure 3A, right). […]

T1 sequence (O35433 whole entry Y511A): as the sequence (O35433 whole entry S512F/M547L) above, with Y511A, F512S, L547M counted along it

C=C(C)[C@]12C[C@@H](C)[C@@]34O[C@](Cc5ccccc5)(O[C@@H]1[C@@H]3C=C(COC(=O)Cc1ccc(O)c(OC)c1)C[C@]1(O)C(=O)C(C)=C[C@@H]41)O2 [RTx, resiniferatoxin]
Hill slope (nH) [1]: 1.1
Kd ([1]; read-out: Kd of 3H-RTx binding (Hill fit)): > 238 nM
channel activation by RTx [2]: lost sensitivity
